# Reference: patent publication US11905268B2, “Anthranilic acid derivatives and their use in the treatment of human cancers” (UNIVERSITY OF CENTRAL FLORIDA RESEARCH FOUNDATION, INC., priority 2018, dated 2024)
# Where two headings read alike, the source gives them in different places.
# Tests used:
# [1] = test system: DFMO treated Chinese hamster ovary (CHO) cells; assay: DFMO/spermidine rescue assay in CHO cells (Assay 2); assay type: cell-based; details: for EC50 / IC50: Cricetulus griseus; for EC50: Table 2
# [2] = Plasma stability, human; assay type: in vitro ADME
# [3] = test system: CHO cells; assay: Cytotoxicity screen in CHO cells; details: for IC50 at 48 h: Chinese hamster, CHO K1 cells; for CHO MTD: hamster
# [4] = Solubility; assay type: physicochemical; details: for solubility: PBS
# [5] = Microsomal stability, mouse; assay type: in vitro ADME
# [6] = Plasma stability, rat; assay type: in vitro ADME
# [7] = Plasma stability, mouse; assay type: in vitro ADME
# [8] = Microsomal stability, rat; assay type: in vitro ADME
# [9] = test system: L3.6pl cells; assay: cells; assay type: cell-based
# [10] = Microsomal stability, human; assay type: in vitro ADME
# [11] = test system: L3.6pl cells; assay: Ant44 assay in L3.6pl cells; assay type: cell-based, human
# Protocol: For example, in the ANT44 assay an EC48=9 means that the PTI molecule at 9 μM was able to block 48% of the Ant44 entry into L3.6 pl human Pancreatic ductal adenocarcinoma cells after 72 h incubation time at 37° C. Another explanation, is that the PTI was able to disrupt […] of the intracellular trafficking of Ant44 that leads to toxicity. Recall a polyamine transport inhibitor can work at any one (or more than one) of the different steps involved in the multi-step polyamine import and intracellular trafficking process. Blocking the entering spermidine from reaching its intended intracellular target is another way in which these compounds may function.
# (§1) The higher EC value denotes the compound is giving a relative % growth of L3.6 pl cells consistent with inhibiting either Ant44 uptake or blocking the uptake of the rescuing dose of spermidine. Alternatively these compounds may disrupting the intracellular trafficking of Ant44 and spermidine so they cannot reach their intended intracellular target.
# [12] = test system: CHO cells; assay: Ant44 rescue assay in CHO cells (Assay 1); assay type: cell-based, Chinese hamster; details: for EC50 / IC50: Cricetulus griseus; for Active in Ant44 assay?: Table 2, in CHO
# [13] = test system: L3.6pl cells; assay: DFMO/Spd rescue assay in L3.6pl cells; assay type: cell-based, human
# Protocol: In another example in the DFMO spermidine (Spd) rescue assay an EC38=8 means that the PTI molecule at 8 μM was able to block 38% of the entry of spermidine into DFMO treated L3.6 pl cells after 72 h incubation time at 37° C. Another explanation, is that the PTI was able to disrupt […] of the intracellular trafficking of Spd that leads to cell rescue. […] Since both Ant44 and Spermidine are polyamine-based systems, cells likely use one mode of the polyamine transport (basal or obligate) in each assay.
# as §1
# [14] = summary of Table 6 (human, mouse, rat)
# [15] = CHO, Table 2, Active in Ant44 assay?, read-out: Ant44 assay EC50 in CHO
# [16] = CHO, Table 7, read-out: SAR IC50 Ant44 assay
# [17] = Table 4B, CHO cells, read-out: Ant44 IC50
smiles,measurement,setting,value
COc1ccc(C(=O)Nc2ccc(N3CCN(c4ccccc4OC)CC3)cc2C(=O)O)cc1 [SBI-0800678],EC50,[1]; CHO,~25 µM
same,IC50,"[1]; Table 1 HTS top hits, CHO cells, read-out: DFMO Assay IC50",15 to 25 µM
same,Plasma Stability % remaining at 3 hours,[2]; Human,88.0%
same,plasma stability,[2]; [14],good
same,IC50 at 48 h,[3],> 40 µM
same,CHO MTD,[3],>32 µM
same,Tox (Ant44),"[3]; toxic above the stated concentration, CHO cells, listed with Ant44 assay",SBI- 0800678.0001 (20 EC50) Tox >20 μM
same,tox (DFMO Assay),"[3]; toxic above the stated concentration, CHO cells, listed with DFMO assay",> 15 µM
same,solubility in PBS,[4],poorly soluble
same,solubility,"[4]; aqueous buffer, pH 5.0",0.3 µg/mL
same,solubility,"[4]; pH 6.2, aqueous buffer",0.1 µg/mL
same,solubility,"[4]; pH 7.4, aqueous buffer",> 0.1 µg/mL
same,Microsomal Stability % remaining at 1 hour,[5],60.4%
same,Plasma Stability % remaining at 3 hours,[6],55.3%
same,Plasma Stability % remaining at 3 hours,[7],83.1%
same,Microsomal Stability % remaining at 1 hour,[8],58.0%
same,IC50,"[9]; Homo sapiens, L3.6pl, relative growth after 72 h, read-out: L3.6pl IC50",13.3 ± 0.04 µM
same,L3.6pl MTC,[9]; maximum tolerated concentration where cells are >90% viable,6 µM
same,Microsomal Stability % remaining at 1 hour,[10]; Human,52.0%
same,microsomal stability,[10]; [14],good
same,worked in Assay 1 (Ant44),[11],worked
same,EC50,[12]; [15],~20 µM
same,IC50,[12]; [16],9 µM
same,EC50,"[12]; Table 1 HTS top hits, CHO cells, read-out: Ant44 EC50",20 µM
same,IC50,[12]; [17],9 µM
same,Active in Ant44 assay?,[12],Yes
"COc1ccccc1C(=O)Nc1ccc(N2CCC(c3ccccc3)CC2)cc1C(=O)O [SBI-0814418, 2-(2-methoxybenzamido)-5-(4-phenylpiperidin-1-yl)benzoic acid]",activity in DFMO assay,[1]; CHO cells,modest activity
same,EC50,[1]; CHO,21 µM
same,IC50,"[1]; CHO, Table 4B, read-out: DFMO/CHO IC50",21 µM
same,IC50,"[1]; CHO, Table 7, read-out: SAR IC50 DFMO assay",21 µM
same,general toxicity,[3]; CHO cells,without general toxicity
same,IC50 at 48 h,[3],> 40 µM
same,CHO MTD,[3],>32 µM
same,L3.6pl MTD,[9]; Table 2,5 µM
same,L3.6pl MTD,[9]; Table 4B,(5-10) μM
same,L3.6pl MTD cell: percentage at 10 μM,[9]; at 10 μM,80%
same,activity in DFMO assay run in L3.6 pl,[13],micromolar activity
same,EC50,"[13]; Homo sapiens, Table 2, DFMO rescue in L3.6pl",5 µM
same,Active in Ant44 assay?,"[11]; Table 2, in L3.6pl",no
same,activity in Ant44 assay,[12]; CHO cells,modest activity
same,EC50,[12]; [15],19 µM
same,IC50,[12]; [16],18 µM
same,IC50,[12]; [17],19 µM
same,Active in Ant44 assay?,[12],Yes
